# Assay results reported in patent publication US20200339625A1, “NOVEL RADIOMETAL-BINDING COMPOUNDS FOR DIAGNOSIS OR TREATMENT OF PROSTATE SPECIFIC MEMBRANE ANTIGEN-EXPRESSING CANCER” (PROVINCIAL HEALTH SERVICES AUTHORITY, priority 2017, published 2020).
# Legend:
# PSMA on LNCaP cells = target: T1, PSMA on LNCaP cells (Homo sapiens, UniProt Q04609); experiment: In vitro competition binding assay (displacement of 18F-DCFPyL); details: for Ki: inhibition of 18F-DCFPyL binding to PSMA on LNCaP cells, n=3
# T1 construct: endogenous in cells; host or cells: LNCaP prostate cancer cells
# T1 sequence (Q04609 whole entry): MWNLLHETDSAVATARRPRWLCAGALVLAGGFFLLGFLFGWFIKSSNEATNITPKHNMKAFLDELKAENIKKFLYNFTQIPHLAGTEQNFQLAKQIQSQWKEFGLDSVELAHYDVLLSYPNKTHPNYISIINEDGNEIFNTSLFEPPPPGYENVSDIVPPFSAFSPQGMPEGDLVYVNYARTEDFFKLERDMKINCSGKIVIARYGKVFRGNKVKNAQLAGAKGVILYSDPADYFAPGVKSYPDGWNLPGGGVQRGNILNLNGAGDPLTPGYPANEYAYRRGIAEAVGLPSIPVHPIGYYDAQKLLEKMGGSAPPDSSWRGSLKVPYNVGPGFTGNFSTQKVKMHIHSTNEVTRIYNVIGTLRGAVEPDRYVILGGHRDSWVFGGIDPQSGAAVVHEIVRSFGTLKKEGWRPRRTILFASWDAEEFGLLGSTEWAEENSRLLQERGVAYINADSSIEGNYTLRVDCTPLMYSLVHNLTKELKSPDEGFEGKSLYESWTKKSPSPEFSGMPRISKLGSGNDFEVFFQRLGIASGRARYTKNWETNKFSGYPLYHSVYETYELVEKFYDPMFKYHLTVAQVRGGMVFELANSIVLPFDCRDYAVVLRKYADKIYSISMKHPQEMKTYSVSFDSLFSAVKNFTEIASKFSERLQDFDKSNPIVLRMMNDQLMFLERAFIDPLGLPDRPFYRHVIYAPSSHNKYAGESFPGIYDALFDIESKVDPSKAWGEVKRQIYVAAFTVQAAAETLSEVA
# Description: 1.14 In Vitro Competition Binding Assay
# In vitro competition binding assays were conducted as previously reported using LNCaP prostate cancer cells and ^18F-DCFPyL as the radioligand. ^18 Briefly, LNCaP cells (400,000/well) were plated onto a 24-well poly-D-lysine coated plate for 48 h. Growth media was removed and replaced with HEPES buffered saline (50 mM HEPES, pH 7.5, 0.9% sodium chloride) and the cells were incubated for 1 h at 37° C. ^18F-DCFPyL (0.1 nM) was added to each well (in triplicate) containing various concentrations ([…]) of tested compounds (Lu-PSMA-617 or Lu-HTK01169). Non-specific binding was determined in the presence of 10 μM non-radiolabeled DCFPyL. The assay mixtures were further incubated for 1 h at 37° C. with gentle agitation. Then, the buffer and hot ligand were removed, and cells were washed twice with cold HEPES buffered saline. To harvest the cells, 400 μL of 0.25% trypsin solution was added to each well. Radioactivity was measured on a PerkinElmer (Waltham, Mass.) Wizard2 2480 automatic gamma counter. Nonlinear regression analyses and Ki calculations were performed using the GraphPad Prism 7 software.
# [1] = test system: mice bearing PSMA-expressing LNCAP cancer xenografts; experiment: Biodistribution of 68Ga-labeled compounds; format: in vivo
# Summary of the method: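 NOD-SCID IL2RγKO male mice carried subcutaneous LNCaP xenografts grown to 5-8 mm over 5-6 weeks. Organs and blood were collected at 1 or 3 h after injection of the radiotracer and gamma-counted. Uptake was normalized to injected dose via a standard curve and expressed as %ID/g.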
# [2] = test system: mice bearing LNCaP tumor xenografts; experiment: PET/CT imaging of 68Ga-labeled compounds; format: in vivo
# Summary of the method: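 Male NOD SCID IL2Rγ KO mice bore subcutaneous LNCaP xenografts (1×10^7 cells, tumours 5-8 mm) and received 6-8 MBq tracer via tail vein under 2% isoflurane. At 50 min p.i., a 10-min CT and a 10-min static PET were acquired. For the 3 h time point, scanning began at 170 min p.i. with a 15-min static PET.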
# [3] = test system: metastatic prostate cancer; details: advanced metastatic prostate cancer patients; cited from earlier work
smiles,measurement,setting,value
O=C([O-])CN1CCN(CC(=O)[O-])CCN(CC(=O)NCCCC[C@H](NC(=O)[C@H](CCC(=O)O)NC(=O)CCCc2ccc(I)cc2)C(=O)NC[C@H]2CC[C@H](C(=O)N[C@@H](Cc3ccc4ccccc4c3)C(=O)NCCCC[C@H](NC(=O)N[C@@H](CCC(=O)O)C(=O)O)C(=O)O)CC2)CCN(CC(=O)[O-])CC1.[Lu+3] [Lu-HTK01169],Ki,PSMA on LNCaP cells,0.04 ± 0.01 nM
same,improvement in PSMA binding compared to Lu-PSMA-617,PSMA on LNCaP cells; ratio of Ki values,6 fold
"O=C([O-])CN1CCN(CC(=O)[O-])CCN(CC(=O)NCC2CCC(C(=O)N[C@@H](Cc3ccc4ccccc4c3)C(=O)NCCCC[C@H](NC(=O)N[C@@H](CCC(=O)O)C(=O)O)C(=O)O)CC2)CCN(CC(=O)[O-])CC1.[Lu+3] (stereo partly drawn) [Lu-PSMA-617, reference compound]",Ki,PSMA on LNCaP cells,0.24 ± 0.06 nM
Cc1ccc(CCCC(=O)NCC(=O)N[C@@H](CCCCNC(=O)CN2CCN(CC(=O)[O-])CCN(CC(=O)[O-])CCN(CC(=O)[O-])CC2)C(=O)NC[C@H]2CC[C@H](C(=O)N[C@@H](Cc3ccc4ccccc4c3)C(=O)NCCCC[C@H](NC(=O)N[C@@H](CCC(=O)O)C(=O)O)C(=O)O)CC2)cc1.[68Ga+3] [^68Ga-HTK03090],Adrenal glands uptake,[1]; 1 h post-injection,3.99 ± 1.94 % ID/g
same,Blood uptake,[1]; 1 h post-injection,16.8 ± 2.14 % ID/g
same,Bone uptake,[1]; 1 h post-injection,0.71 ± 0.10 % ID/g
same,Brain uptake,[1]; 1 h post-injection,0.20 ± 0.02 % ID/g
same,Fat uptake,[1]; 1 h post-injection,1.87 ± 0.80 % ID/g
same,Heart uptake,[1]; 1 h post-injection,3.95 ± 0.72 % ID/g
same,Intestine uptake,[1]; 1 h post-injection,1.14 ± 0.13 % ID/g
same,Kidneys uptake,[1]; 1 h post-injection,24.3 ± 3.03 % ID/g
same,Lacrimal uptake,[1]; 1 h post-injection,0.16 ± 0.07 % ID/g
same,Liver uptake,[1]; 1 h post-injection,3.37 ± 0.85 % ID/g
same,Lungs uptake,[1]; 1 h post-injection,7.68 ± 1.33 % ID/g
same,Muscle uptake,[1]; 1 h post-injection,1.23 ± 0.15 % ID/g
same,Pancreas uptake,[1]; 1 h post-injection,1.36 ± 0.22 % ID/g
same,Salivary uptake,[1]; 1 h post-injection,2.48 ± 0.36 % ID/g
same,Seminal uptake,[1]; 1 h post-injection,0.90 ± 0.15 % ID/g
same,Spleen uptake,[1]; 1 h post-injection,2.00 ± 0.34 % ID/g
same,Stomach uptake,[1]; 1 h post-injection,0.59 ± 0.13 % ID/g
same,Tail uptake,[1]; 1 h post-injection,3.77 ± 0.91 % ID/g
same,Testes uptake,[1]; 1 h post-injection,1.95 ± 0.20 % ID/g
same,Thyroid uptake,[1]; 1 h post-injection,3.36 ± 0.24 % ID/g
same,Tumor uptake,[1]; 1 h post-injection,8.54 ± 0.74 % ID/g
same,Tumor:Blood ratio,[1]; 1 h post-injection,0.52 ± 0.10
same,Tumor:Muscle ratio,[1]; 1 h post-injection,7.09 ± 1.37
same,Urine uptake,[1]; 1 h post-injection,21.5 ± 9.93 % ID/g
same,Adrenal glands uptake,[1]; 3 h post-injection,2.89 ± 0.28 % ID/g
same,Blood uptake,[1]; 3 h post-injection,13.6 ± 1.23 % ID/g
same,Bone uptake,[1]; 3 h post-injection,0.64 ± 0.03 % ID/g
same,Brain uptake,[1]; 3 h post-injection,0.16 ± 0.02 % ID/g
same,Fat uptake,[1]; 3 h post-injection,1.30 ± 0.13 % ID/g
same,Heart uptake,[1]; 3 h post-injection,3.00 ± 0.41 % ID/g
same,Intestine uptake,[1]; 3 h post-injection,0.98 ± 0.16 % ID/g
same,Kidneys uptake,[1]; 3 h post-injection,30.0 ± 8.66 % ID/g
same,Lacrimal uptake,[1]; 3 h post-injection,0.10 ± 0.13 % ID/g
same,Liver uptake,[1]; 3 h post-injection,2.73 ± 0.90 % ID/g
same,Lungs uptake,[1]; 3 h post-injection,6.00 ± 0.88 % ID/g
same,Muscle uptake,[1]; 3 h post-injection,1.04 ± 0.12 % ID/g
same,Pancreas uptake,[1]; 3 h post-injection,1.27 ± 0.13 % ID/g
same,Salivary uptake,[1]; 3 h post-injection,2.15 ± 0.37 % ID/g
same,Seminal uptake,[1]; 3 h post-injection,0.89 ± 0.05 % ID/g
same,Spleen uptake,[1]; 3 h post-injection,1.93 ± 0.55 % ID/g
same,Stomach uptake,[1]; 3 h post-injection,0.63 ± 0.12 % ID/g
same,Tail uptake,[1]; 3 h post-injection,3.75 ± 1.53 % ID/g
same,Testes uptake,[1]; 3 h post-injection,2.08 ± 0.42 % ID/g
same,Thyroid uptake,[1]; 3 h post-injection,2.76 ± 0.21 % ID/g
same,Tumor uptake,[1]; 3 h post-injection,16.9 ± 3.16 % ID/g
same,Tumor:Blood ratio,[1]; 3 h post-injection,1.25 ± 0.32
same,Tumor:Muscle ratio,[1]; 3 h post-injection,16.6 ± 4.11
same,Urine uptake,[1]; 3 h post-injection,53.9 ± 14.6 % ID/g
same,change of tumor uptake from 1 h to 3 h post-injection,[2]; PET/CT images,increases over time
same,blood retention (qualitative),"[2]; PET/CT images at 1 h and 3 h post-injection, comparison within the figure",significantly higher blood retention
O=C([O-])CC[C@H](NC(=O)N[C@@H](CCCCNC(=O)[C@H](Cc1ccc2ccccc2c1)NC(=O)[C@H]1CC[C@H](CNC(=O)CN2CCN(CC(=O)[O-])CCN(CC(=O)[O-])CCN(CC(=O)[O-])CC2)CC1)C(=O)[O-])C(=O)[O-].[225Ac].[H+].[H+].[H+] [^225Ac-PSMA-617],response,[3],impressive responses
